Laboratory results as given in the NIST ThermoML archive (doi:10.1016/j.jct.2010.06.008).

Assay: xn = mol fraction of the nth substance listed
Details: 101 kPa, Liquid; for speed of sound: Sing-around technique in a fixed-path interferometer; for mass density: Vibrating tube method

CC(C)CCl [1-chloro-2-methylpropane] + CCCCCC
Details | mass density, 283.15 K [kg/m3] | mass density, 298.15 K [kg/m3] | mass density, 313.15 K [kg/m3] | speed of sound, 283.15 K [m/s] | speed of sound, 298.15 K [m/s] | speed of sound, 313.15 K [m/s]
x2 = 0 | 888.845 | 871.533 | 853.902 | 1141.7 | 1078.6 | 1016.3
x2 = 0.0512 | 874.715 | 857.627 | 840.236 | 1139.3 | 1075.9 | 1013.4
x2 = 0.0999 | 861.62 | 844.732 | 827.564 | 1137.3 | 1073.7 | 1011
x2 = 0.2003 | 835.641 | 819.166 | 802.454 | 1134 | 1070 | 1006.9
x2 = 0.2993 | 811.259 | 795.172 | 778.889 | 1131.9 | 1067.5 | 1003.9
x2 = 0.4005 | 787.516 | 771.817 | 755.943 | 1130.6 | 1065.8 | 1001.8
x2 = 0.4977 | 765.822 | 750.487 | 735.001 | 1130.5 | 1065.2 | 1000.6
x2 = 0.598 | 744.502 | 729.51 | 714.446 | 1131.3 | 1065.5 | 1000.4
x2 = 0.6993 | 723.963 | 709.35 | 694.648 | 1133 | 1066.7 | 1001.1
x2 = 0.799 | 704.731 | 690.452 | 676.142 | 1135.8 | 1069 | 1002.8
x2 = 0.8967 | 686.793 | 672.832 | 658.858 | 1139.6 | 1072.2 | 1005.6
x2 = 0.9472 | 677.811 | 664.036 | 650.244 | 1142 | 1074.3 | 1007.5

CC(C)CCl [1-chloro-2-methylpropane] + CCCCCCC
Details | mass density, 283.15 K [kg/m3] | mass density, 298.15 K [kg/m3] | mass density, 313.15 K [kg/m3] | speed of sound, 283.15 K [m/s] | speed of sound, 298.15 K [m/s] | speed of sound, 313.15 K [m/s]
x2 = 0 | 888.845 | 871.533 | 853.902 | 1141.7 | 1078.6 | 1016.3
x2 = 0.0507 | 874.748 | 857.771 | 840.47 | 1142.2 | 1079.1 | 1016.8
x2 = 0.0979 | 862.133 | 845.448 | 828.448 | 1143 | 1079.8 | 1017.4
x2 = 0.2004 | 836.427 | 820.343 | 803.95 | 1145.4 | 1082.2 | 1019.6
x2 = 0.3008 | 813.265 | 797.726 | 781.886 | 1149 | 1085.5 | 1022.9
x2 = 0.3993 | 792.269 | 777.224 | 761.888 | 1153.4 | 1089.8 | 1027
x2 = 0.4999 | 772.383 | 757.812 | 742.952 | 1158.6 | 1094.9 | 1032
x2 = 0.5973 | 754.5 | 740.349 | 725.924 | 1164.4 | 1100.6 | 1037.5
x2 = 0.6994 | 737.065 | 723.337 | 709.345 | 1171.2 | 1107.2 | 1044
x2 = 0.8006 | 720.978 | 707.64 | 694.051 | 1178.7 | 1114.2 | 1051.1
x2 = 0.9002 | 706.284 | 693.212 | 679.976 | 1187 | 1122.3 | 1058.9
x2 = 0.9491 | 699.353 | 686.54 | 673.496 | 1191 | 1126.4 | 1062.7
